Test results as given in patent US10583171B2, “NMDAR antagonists for the treatment of diseases associated with angiogenesis” (INSERM (Institut National de la Sante et de la Recherche …, priority 2015, dated 2020).

How the values were obtained:
Type in all cases: cell-based, human
[1] = system: hPMVEC; assay: In vitro angiogenesis Matrigel assay with hPMVEC; details: 4 hours, 100 μM (+)-MK-801 maleate or 50 μM DAP-V (FIG. 1g, FIG. 2f)
Procedure: Matrigel assays were performed on μ-slide angiogenesis (IBIDI, Martinsried, Germany). 100 μL of phenol-red free matrigel matrix (BD, Franklin lakes, N.J., USA) were put in each wells and slides were incubated during 30 min at 37° C. Then, 50 μL of EGM2-MV medium with our without NMDAR antagonists (100 μM (+)-MK-801 maleate or 50 μM DAP-V, both from ABCAM BIOCHEMICALS, Cambridge, UK) were added on matrigel gels during 1 hour. 3500 hPMVEC were seeded in each well in presence or absence of NMDAR antagonists. After 4 hours, bright-field images of capillary-like structures were captured using Eclipse 80i microscope coupled to Nis Elements BR2.30 software. Images were then automatically analyzed with “Angiogenesis analyzer” plugin for ImageJ software resulting in total tube length and total number of nodes determination.

[2] = system: hPASMCs; assay: hPASMC proliferation induced by PDGF-BB; details: PDGF-BB stimulation, no NMDAR agonist added to the medium
Procedure: For hPASMC culture, 250 000 cells were seeded in T75 flasks (BD Falcon, CORNING, Tewksbury, Mass., USA) and grown in the SmGm2 complete medium containing SmBm basal medium and also basic fibroblast growth factor, epidermal growth factor, insulin and gentamycin/amphotericin 1× (all from LONZA, Basel, Switzerland).
As proliferation of hPASMCs is a crucial determinant of vascular remodeling associated to increased pulmonary vascular resistance and pressure, we analyzed the role of NMDAR activation in hPASMCs proliferation. […] Thus, we explored the potential of PDGF-BB to phosphorylate GluN1 in hPASMCs on Ser896, a site phosphorylated in pulmonary arteries of PAH patients.

[3] = system: hPMVEC; assay: hPMVEC proliferation (BrdU incorporation) stimulated by VEGF-A or FBS; details: for hPMVEC proliferation stimulated by FBS 10%: antagonist 10 μM to 100 μM, no exogenous NMDAR agonists (FIG. 2e); for hPMVEC proliferation stimulated by VEGF-A: VEGF-A 10 ng·ml^−1, antagonist 10 μM to 100 μM, no exogenous NMDAR agonists (FIG. 1f)
Procedure: FIG. 1: Activation of endothelial cell NMDAR contributes to vascular remodeling in the development of pulmonary hypertension. • (a) The table summarizes quantitation of total membrane GluN1 i.e NMDAR available for activation, in endothelial cells and also specifically in synaptic-like contact (defined as a close contact […] between two endothelial cells without junctions). A concentration index of GluN1 in the synaptic-like contacts was determined calculating the ratio of the percent of membrane GluN1 in these synaptic-like contacts divided by the percent of synaptic contact length. • (b) Quantitative RT-PCR analysis of GRIN1 gene expression from total RNA of CD31+ cells and CD31− cells isolated from the lungs of wild-type mice (n=4) and knocked-out mice (n=4) for the NMDAR in ECs showing efficiency of Grin1 knockout in ECs. Grin1 gene expression is normalized to Actinb gene expression. Values are normalized to those of WT mice. • (c) Right Ventricular Systolic Pressure (RVSP) measurement in wild-type (n=11-12) and knocked-out mice for the NMDAR in ECs (n=17-18) after 3 weeks of normoxia or chronic hypoxia (FiO2: 10%). • (d) Ratio of right ventricular weight to left ventricular plus septum weight (Fulton index) measured in wild-type (n=12) or knocked-out mice for the NMDAR in ECs (n=19-20) after 3 weeks of normoxia or chronic hypoxia (FiO2: 10%). Same experiment as in c). • (e) Morphometric analysis of pulmonary vessels in wild-type or knocked-out mice for the NMDAR in ECs after 3 weeks of normoxia or chronic hypoxia (FiO2: 10%). Same experiment as in c) and d). […] 100 vessels were analyzed for each group (20 vessels per group and per mice). […] On the left automatic quantification of total tube length and total number of nodes using the “Angiogenesis analyzer” plugin from ImageJ software on a total of 7-8 images (1 image/replicate, each image covering nearly all the well area). Values are expressed as percent of control. […] Statistical significance was determined by Mann Whitney test (b), regular two-way ANOVA followed by Bonferonni's test (c-e), one-way ANOVA followed by Bonferonni's multiple comparison test (f, h) or Student's t test (g). *p<0.05, ***p<0.001 compared to WT/control (b-e, g, h) or ^§§§ p<0.001 compared to control, *p<0.05, ***p<0.001 compared to VEGF (f). […]
FIG. 2: Supplementary figures about activation of endothelial cell NMDAR contributes to vascular remodeling in the development of pulmonary hypertension. • (a) Quantitation of total GluN1-associated immunogold particles per 100 μm^2 of endothelial cells in arteries from a control patient, and in an intimal lesion and plexiform lesion from a PAH patient. • (b) Genotyping of Tek-creXGrin1 mice. […]

[4] = system: hPMVEC; assay: hPASMC/hPMVEC co-culture model of angiogenesis; details: hPMVECs and hPASMCs co-culture, 15 days, CD31 staining; 10 to 100 μM (FIG. 1h, FIG. 2g)
Procedure: For the hPASMC/hPMVEC co-culture model of angiogenesis, 20000 PASMC were seeded on glass coverslips in a 12-well plate (CORNING, Tewksbury, Mass., USA) and cultured until confluence in SmGm2 complete medium. […] Medium was changed every 2 to 3 days and after 15 days of co-culture, cells were fixed and CD31 was stained. After staining, 5×5 images of each coverslip were captured using mosaic mode of acquisition with a Zeiss Axio Observer Z1 microscope coupled to Axiovision 4.8 software (both from CARL ZEISS, Oberkochen, Germany). Images were analysed using ImageJ software in order to calculate the CD31 staining area to the total cell area ratio. This ratio was further named as the total tube length. Automatic quantitation was also achieved using AngioQuant software^70 to determine total tube length.

## N[C@H](CCCP(=O)(O)O)C(=O)O [DAP-5, 2-amino-5-phosphonopentanoïc acid]
[1]
  number of nodes: decrease
  total tube length formation: decrease

## CC12CC3CC(C)(C1)CC(N)(C3)C2 [memantine, 3,5-dimethyladamantan-1-amine]
[2]
  hPASMCs proliferation induced by PDGF-BB: dose-dependent inhibition
[3]
  hPMVEC proliferation stimulated by FBS 10%: dose-dependently inhibit
  hPMVEC proliferation stimulated by VEGF-A: dose-dependently inhibit

## C[C@@]12N[C@@H](Cc3ccccc31)c1ccccc12 [MK-801, [5R,10S]-[+]-5-methyl-10,11-dihydro-5H-dibenzo[a,d]cyclohepten-5,10-imine]
[1]
  number of nodes: decrease
  total tube length formation: decrease
[4]
  formation of the endothelial tube network: dose-dependently inhibits
[3]
  hPMVEC proliferation stimulated by FBS 10%: dose-dependently inhibit
  hPMVEC proliferation stimulated by VEGF-A: dose-dependently inhibit
